Measured values reported in patent publication US6521620B1, “Bicyclic compounds capable of inhibiting tyrosine kinases of the epidermal growth factor receptor family” (Warner-Lambert Company, priority 1994, dated 2003).
Where a name gives a salt, the structure may show the parent alone.

Biological target: T1, Human EGF receptor tyrosine kinase (Homo sapiens, UniProt P00533)
T1 construct: isolated from A431 human epidermoid carcinoma cells which overexpress EGF receptor; endogenous in cells; host or cells: A431 human epidermoid carcinoma cells; purified from the lysate on wheat germ agglutinin sepharose
Assay: EGF receptor tyrosine kinase inhibition (phosphorylation of PLC-gamma 1 derived peptide)
Type: biochemical
Conditions: not given
Description: Purification of Epidermal Growth Factor Receptor Tyrosine Kinase—Human EGF receptor tyrosine kinase was isolated from A431 human epidermoid carcinoma cells which overexpress EGF receptor by the following methods. Cells were grown in roller bottles in 50% Delbuco's Modified Eagle and 50% HAM F-12 nutrient media (Gibco) containing 10% fetal calf serum. Approximately 10^9 cells were lysed in two volumes of buffer containing 20 mM 2-(4N-[2-hydroxyethyl]piperazin-1-yl)ethanesulfonic acid (hepes), pH 7.4, 5 mM ethylene glycol bis(2-aminoethyl ether) N,N,N′,N′-tetraacetic acid, 1% Triton X-100, 10% glycerol, 0.1 mM sodium orthovanadate, 5 mM sodium fluoride, 4 mM pyrophosphate, 4 mM benzamide, 1 mM dithiothreitol, 80 μg/mL aprotinin, 40 μg/mL leupeptin and 1 mM phenylmethylsulfonyl fluoride. After centrifugation at 25,000×g for 10 minutes, the supernatant was equilibrated for 2 h at 4° C. with 10 mL of wheat germ agglutinin sepharose that was previously equilibrated with 50 mM Hepes, […], 0.1% Triton X-100 and 150 mM NaCl, pH 7.5, (equilibration buffer). Contaminating proteins were washed from the resin with 1 M NaCl in equilibration buffer, and the enzyme was eluted with 0.5 M N-acetyl-1-D-glucosamine in equilibration buffer, followed by 1 mM urea. The enzyme was eluted with 0.1 mg/ml EGF.
The reaction was terminated by the addition of 2 mL of […] phosphoric acid and passed through a 2.5 cm phosphocellulose filter disc to bind the peptide. The filter was washed five times with 75 mM phosphoric acid and placed in a vial along with 5 mL of scintillation fluid (Ready gel Beckman).

T1 sequence (P00533 25-1210): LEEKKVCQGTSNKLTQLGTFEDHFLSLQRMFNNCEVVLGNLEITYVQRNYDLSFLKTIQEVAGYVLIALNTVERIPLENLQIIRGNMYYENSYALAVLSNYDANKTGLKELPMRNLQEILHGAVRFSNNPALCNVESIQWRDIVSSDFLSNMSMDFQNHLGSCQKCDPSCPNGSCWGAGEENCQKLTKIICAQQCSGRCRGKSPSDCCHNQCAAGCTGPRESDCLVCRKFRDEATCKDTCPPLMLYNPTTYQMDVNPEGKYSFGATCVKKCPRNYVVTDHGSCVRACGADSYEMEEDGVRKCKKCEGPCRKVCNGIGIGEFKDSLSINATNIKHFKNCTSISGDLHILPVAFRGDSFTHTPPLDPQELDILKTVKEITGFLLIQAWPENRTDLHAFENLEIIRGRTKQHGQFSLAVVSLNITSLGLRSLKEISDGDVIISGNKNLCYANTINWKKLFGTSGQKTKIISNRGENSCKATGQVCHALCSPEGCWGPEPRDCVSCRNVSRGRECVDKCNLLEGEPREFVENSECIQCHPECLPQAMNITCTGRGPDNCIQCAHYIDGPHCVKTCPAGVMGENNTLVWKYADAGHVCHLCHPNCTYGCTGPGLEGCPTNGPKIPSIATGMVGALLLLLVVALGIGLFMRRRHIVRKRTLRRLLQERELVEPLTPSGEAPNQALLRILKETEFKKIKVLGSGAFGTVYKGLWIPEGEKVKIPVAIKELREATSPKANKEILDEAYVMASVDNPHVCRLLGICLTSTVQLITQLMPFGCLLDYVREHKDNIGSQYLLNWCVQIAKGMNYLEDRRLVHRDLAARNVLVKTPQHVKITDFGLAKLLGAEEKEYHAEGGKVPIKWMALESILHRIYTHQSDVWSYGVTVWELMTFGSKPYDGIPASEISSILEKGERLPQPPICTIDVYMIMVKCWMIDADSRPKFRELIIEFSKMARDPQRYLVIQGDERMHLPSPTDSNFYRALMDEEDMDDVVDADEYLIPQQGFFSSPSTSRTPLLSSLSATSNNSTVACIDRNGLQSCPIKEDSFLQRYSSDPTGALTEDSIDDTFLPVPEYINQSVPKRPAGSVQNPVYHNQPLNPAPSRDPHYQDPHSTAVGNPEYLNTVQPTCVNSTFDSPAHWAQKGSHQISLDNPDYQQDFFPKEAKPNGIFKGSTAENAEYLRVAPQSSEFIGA

IC50 | Compound
3600 nM | c1ccc(CNc2ncnc3cccnc23)cc1 [Example 2, 4-Benzylaminopyrido[3,2-d]pyrimidine]
11 nM | Brc1cccc(Nc2ncnc3ccsc23)c1 [Example 71, 4-(3-Bromoanilino)thieno[3,2-d]pyrimidine Hydrochloride]
36 nM | Brc1cccc(Nc2ncnc3sccc23)c1 [Example 73, 4-(3-Bromoanilino)thieno[2,3-d]pyrimidine]

Same assay, conditions: Table 1, values in nM; read-out: EGF Receptor Tyrosine Kinase Inhibition IC50

IC50 | Compound
263 nM | COc1ccc2c(Nc3cccc(Br)c3)ncnc2n1 [Example 68, 4-(3-Bromoanilino)-7-methoxypyrido[2,3-d]pyrimidine]
262 nM | Nc1cc2ncnc(Nc3cccc(I)c3)c2cn1 [Example 29, 7-Amino-4-(3-iodoanilino)pyrido[4,3-d]pyrimidine]
40 nM | Clc1cc2c(Nc3cccc(Br)c3)ncnc2cn1 [Example 58, 4-(3-Bromoanilino)-6-chloropyrido[3,4-d]pyrimidine]
3.1 nM | CNc1cc2ncnc(N(C)c3cccc(Br)c3)c2cn1 [Example 35, 4-[N-(3-Bromophenyl)-N-methylaminol-7-methylaminopyrido 4,3-d]pyrimidine]
29 nM | CC(=O)Nc1cc2ncnc(Nc3cccc(Br)c3)c2cn1 [Example 36, 7-Acetylamino-4-(3-bromoanilino)pyrido[4 3-d]pyrimidine]
226 nM | Nc1cc2ncnc(NCc3ccccc3N)c2cn1 [Example 42, 7-Amino-4-(2-aminobenzylamino)pyrido[4,3-d]pyrimidine]
124 nM | Fc1cc2c(Nc3cccc(Br)c3)ncnc2cn1 [Example 57, 4-(3-Bromoanilino)-6-fluoropyrido[3,4-d]pyrimidine]
377 nM | Nc1cc2ncnc(Nc3ccc(Cl)c(Cl)c3)c2cn1 [Example 25, 7-Amino-4-(3,4-dichloroanilino)pyrido[4,3-d]pyrimidine]
71 nM | c1ccc(CNc2ncnc3ccncc23)cc1 [Example 38, 4-Benzylaminopyrido[4,3-d]pyrimidine]
13 nM | Fc1cc2ncnc(Nc3cccc(Br)c3)c2cn1 [Example 12, 4-(3-Bromoanilino)-7-fluoropyrido[4,3-d]pyrimidine]
134 nM | COc1cccc(Nc2ncnc3cc(N)ncc23)c1 [Example 15, 7-Amino-4-(3-methoxyanilino)pyrido[4,3-d]pyrimidine]
6.7 nM | Brc1cccc(Nc2ncnc3cnc(N4CCCCC4)cc23)c1 [Example 79, 4-(3-Bromoanilino)-6-(piperidin-1-yl)pyrido[3,4-d]pyrimidine]
70 nM | Nc1cc2ncnc(Nc3cccc(O)c3)c2cn1 [Example 14, 7-Amino-4-(3-hydroxyanilino)pyrido[4,3-d]pyrimidine]
39 nM | COc1cc2ncnc(Nc3cccc(Br)c3)c2cn1 [Example 37, 4-(3-Bromoanilino)-7-methoxypyrido[4,3-d]pyrimidine]
840 nM | Nc1cc2ncnc(Nc3cccc(F)c3)c2cn1 [Example 23, 7-Amino-4-(3-fluoroanilino)pyrido[4,3-d]pyrimidine]
241 nM | Nc1cc2ncnc(Nc3ccccc3Br)c2cn1 [Example 26, 7-Amino-4-(2-bromoanilino)pyrido[4,3-d]pyrimidine]
405 nM | COc1ccc2ncnc(Nc3cccc(Br)c3)c2n1 [Example 9, 4-(3-Bromoanilino)-6-methoxypyrido[3,2-d]pyrimidine]
15 nM | Nc1cc2ncnc(Nc3cccc(C(F)(F)F)c3)c2cn1 [Example 31, 7-Amino-4-(3-trifluoromnethylanilino)pyrido[4,3-d]pyrimidine]
11 nM | Fc1ccc2c(Nc3cccc(Br)c3)ncnc2n1 [Example 64, 4-(3-Bromoanilino)-7-fluoropyrido[2,3-d]pyrimidine]
400 nM | c1ccc(Nc2ncnc3cnccc23)cc1 [Example 55, 4-Anilinopyrido[3,4-d]pyrimidine]
35 nM | c1ccc(CNc2ncnc3ccsc23)cc1 [Example 72, 4-Benzylaminothieno[3,2-d]pyrimidine]
194 nM | Brc1cccc(Nc2ncnc3ccncc23)c1 [Example 11, 4-(3-Bromoanilino)pyrido[4,3-d]pyrimidine]
123 nM | Nc1cc2ncnc(Nc3cccc(Cl)c3)c2cn1 [Example 24, 7-Amino-4-(3-chloroanilino)pyrido[4,3-d]pyrimidine]
250 nM | Nc1cc2ncnc(Nc3ccccc3)c2cn1 [Example 13, 7-Amino-4-anilinopyrido[4,3-d]pyrimidine]
173 nM | Nc1ccc(Nc2ncnc3cc(N)ncc23)cc1 [Example 18, 7-Amino-4-(4-aminoanilino)pyrido[4,3-d]pyrimidine]
94 nM | Nc1cc2ncnc(Nc3ccc(Br)cc3)c2cn1 [Example 28, 7-Amino-4-(4-bromoanilino)pyrido[4,3-d]pyrimidine]

Same assay, conditions: Table 1, values in pM; read-out: EGF Receptor Tyrosine Kinase Inhibition IC50

IC50 | Compound
0.091 nM | CN(C)c1cc2ncnc(Nc3cccc(Br)c3)c2cn1 [Example 34, 4-(3-Bromoanilino)-7-dimethylaminpyrido[4,3-d]pyrimidine]
0.13 nM | CNc1cc2ncnc(Nc3cccc(Br)c3)c2cn1 [Example 33, 4-(3-Bromoanilino)-7-methylaminopyrido[4 3-d]pyrimidine]

Same assay, conditions: Table 1, values printed in μM; read-out: EGF Receptor Tyrosine Kinase Inhibition IC50

IC50 | Compound
6100 nM | CN(C)c1ccc2c(Nc3cccc(Br)c3)ncnc2n1 [Example 67, 4-(3-Bromoanilino)-7-dimethylaminopyrido[2,3-d]pyrimidine]
1000 nM | Nc1cc2ncnc(NCc3cccc(Br)c3)c2cn1 [Example 48, 7-Amino-4-(3-bromobenzylamino)pyrido[4,3-d]pyrimidine]
10000 nM | Nc1cc2ncnc(NCc3cccc([N+](=O)[O-])c3)c2cn1 [Example 44, 7-Amino-4-(3-nitrobenzylamino)pyrido[4,3-d]pyrimidine]
6100 nM | c1ccc(Nc2ncnc3ccncc23)cc1 [Example 10, 4-Anilinopyrido[4,3-d]pyrimidine]
2870 nM | COc1cccc(CNc2ncnc3cc(N)ncc23)c1 [Example 45, 7-Amino-4-(3-methoxybenzylamino)pyrido[4,3-d]pyrimidine]
1670 nM | Nc1cc2ncnc(NCc3ccccc3Br)c2cn1 [Example 47, 7-Amino-4-(2-bromobenzylamino)pyrido[4,3-d]pyrimidine]
1250 nM | Nc1cc2ncnc(Nc3ccccc3[N+](=O)[O-])c2cn1 [Example 21, 7-Amino-4-(2-nitroanilino)pyrido[4,3-d]pyrimidine]
6100 nM | c1ccc(CNc2ncnc3cnccc23)cc1 [Example 62, 4-(Benzylamino)pyrido[3,4-d]pyrimidine]
10000 nM | Nc1cc2ncnc(NCc3ccccc3C(F)(F)F)c2cn1 [Example 50, 7-Amino-4-(2-trifluoromethylbenzylamino)pyrido[4,3-d]pyrimidine]
8000 nM | Nc1cc2ncnc(NCc3ccc(C(F)(F)F)cc3)c2cn1 [Example 52, 7-Amino-4-(4-trifluoromethylbenzylamino)pyrido[4,3-d]pyrimidine]
10000 nM | CN(C)c1cccc(CNc2ncnc3cc(N)ncc23)c1 [Example 43, 7-Amino-4-(3-dimethylaminobenzylamino)pyrido[4,3-d]-pyrimidine]
6100 nM | Brc1cccc(Nc2ncnc3ncccc23)c1 [Example 63, 4-(3-Bromoanilino)pyrido[2,3-d]pyrimidine]
1950 nM | Nc1cc2ncnc(NCc3cccc(C(F)(F)F)c3)c2cn1 [Example 51, 7-Amino-4-(3-trifluoromethylbenzylamino)pyrido[4,3-d]pyrimidine]
1800 nM | Nc1cc2ncnc(NCc3cccs3)c2cn1 [Example 53, 7-Amino-4-(thien-2-ylmethylamino)[4,3-d]pyrimidine Dimesylate]
2500 nM | Nc1cc2ncnc(NCc3ccc(Br)cc3)c2cn1 [Example 49, 7-Amino-4-(4-bromobenzylamino)pyrido[4,3-d]pyrimidine]
10000 nM | c1ccc(CNc2ncnc3nc[nH]c23)cc1 [Example 76, N^6-Benzyladenine]
8000 nM | c1ccc(Nc2ncnc3cccnc23)cc1 [Example 1, 4-Anilinopyrido[3,2-d]pyrimidine Mesylate]
4900 nM | CN(C)c1ccc(Nc2ncnc3cc(N)ncc23)cc1 [Example 20, 7-Amino-4-(4-dimethylaminoanilino)pyrido[4,3-d]pyrimidine]
3700 nM | COc1ccccc1Nc1ncnc2cc(N)ncc12 [Example 16, 7-Amino-4-(2-methoxyanilino)pyrido[4,3-d]pyrimidine]
7000 nM | CNc1ncc2c(NCc3ccccc3)ncnc2n1 [Example 69, 4-Benzylamino-7-methylaminopyrimido[4,5-d]pyrimidine]
1800 nM | CN(C)c1cccc(Nc2ncnc3cc(N)ncc23)c1 [Example 19, 7-Amino-4-(3-dimethylaminoanilino)pyrido [4,3-d]pyrimidine]
1420 nM | Nc1cc2ncnc(NCc3ccc(Cl)cc3)c2cn1 [Example 46, 7-Amino-4-(4-chlorobenzylamino)pyrido[4,3-d]pyrimidine Mesylate]
